Each structure is given as a SMILES string.

This is an account of results in ChEMBL document CHEMBL4813995, “Synthesis and anti-trypanosomal activity of 3'-fluororibonucleosides derived from 7-deazapurine nucleosides” (Bioorg Med Chem Lett, 2021).

Data set [1] relates to CCRF-CEM. Put plainly: Cytotoxicity against human CCRF-CEM cells assessed as reduction in cell viability by XTT assay. Format: functional, cell-based.
The test system of data set [2] is NHDF. Kind of data set: Cytotoxicity against human NHDF cells assessed as reduction in cell viability by XTT assay. The data set is classed as cell-based.
Data set [3] concerns HepG2. Kind of data set: Cytotoxicity against human HepG2 cells assessed as reduction in cell viability by XTT assay. The data set is classed as functional, cell-based.
The subject of data set [4] is HeLa S3. Kind of data set: Cytotoxicity against human HeLa S3 cells assessed as reduction in cell viability by XTT assay. Format: functional, cell-based. (Formazan colour is commonly taken as a measure of viable cells.)
Data set [5] relates to HL-60. Put plainly: Cytotoxicity against human HL-60 cells assessed as reduction in cell viability by XTT assay. The data set is classed as functional, cell-based.
In data set [6] the test system is Trypanosoma brucei brucei. Put plainly: Antitrypanosomal activity against Trypanosoma brucei brucei by drug sensitivity assay. Format: functional, organism-based.
A short description of data set [7]: Selective index, ratio of IC50 for human NHDF cells to EC50 for Trypanosoma brucei brucei. Format: toxicity. The following applies: read-out: Ratio IC50/EC50.
The subject of data set [8] is Trypanosoma brucei gambiense. Kind of data set: Antitrypanosomal activity against Trypanosoma brucei gambiense by drug sensitivity assay. The data set is classed as functional, organism-based.
Data set [9] is described as follows: Selective index, ratio of IC50 for human NHDF cells to EC50 for Trypanosoma brucei gambiense. Format: toxicity. The following applies: read-out: Ratio IC50/EC50.

As for `Nc1ncnc2c1ccn2[C@@H]1O[C@H](CO)[C@@H](F)[C@H]1O`, the IC50 in data set [1], in data set [2], in data set [3], in data set [4] and in [5] was more than 10 µM each time. For the same compound, in [6], the EC50 (usually the concentration at which the effect is half-maximal) was 6 µM. Also, in data set [7], the selectivity ratio is more than 1.7.

With `Nc1ncnc2c1c(I)cn2[C@@H]1O[C@H](CO)[C@@H](F)[C@H]1O`, the IC50 (usually the midpoint of a concentration-inhibition curve) in [1] is 4.5 µM; in data set [2] it was more than 10 µM; in data set [3], 1.1 µM; in data set [4] it was 6.3 µM; in [5] it was 1.13 µM. Besides, the half-maximal effective concentration (EC50) worked out at 0.022 µM in [8] and 0.015 µM in data set [6]. For the same compound, the selectivity ratio was more than 455 in data set [9] and more than 666 in [7].

Turning to `Nc1ncnc2c1c(-c1cccs1)cn2[C@@H]1O[C@H](CO)[C@@H](F)[C@H]1O`, the IC50 in data set [1], in [2], in data set [3], in data set [4] and in [5] was more than 10 µM throughout. For the same compound, the midpoint of the response in data set [6], the EC50, lay at 4.92 µM. In addition, the selectivity ratio in [7] was more than 2.

Take `Nc1ncnc2c1c(-c1ccco1)cn2[C@@H]1O[C@H](CO)[C@@H](F)[C@H]1O`: the IC50 in [1], in data set [2], in data set [3], in data set [4] and in [5] was more than 10 µM each time. Moreover, it took 1.59 µM to reach a half-maximal effect in [6] (EC50). In data set [7], the selectivity ratio is more than 6.

Consider `Nc1ncnc2c1c(-c1ccc(Cl)cc1)cn2[C@@H]1O[C@H](CO)[C@@H](F)[C@H]1O`, for which the IC50 in data set [1], in data set [2], in data set [3], in [4] and in data set [5] was more than 10 µM throughout. Besides, the EC50 in data set [8] amounted to 0.99 µM; in data set [6] it was 0.49 µM. For the same compound, the selectivity ratio in data set [9] was more than 10; in [7], more than 20.

For `Nc1ncnc2c1c(Br)cn2[C@@H]1O[C@H](CO)[C@@H](F)[C@H]1O`, the IC50 in data set [1], in [2], in [3], in data set [4] and in [5] was more than 10 µM in each case. The EC50 in data set [8] worked out at 0.037 µM; in data set [6] it was 0.048 µM. Moreover, the selectivity ratio in data set [9] was more than 270; in data set [7], more than 208.

As to `Nc1ncnc2c1c(-c1ccc3ccccc3c1)cn2[C@@H]1O[C@H](CO)[C@@H](F)[C@H]1O`, the concentration for half-maximal inhibition (IC50) in [1], in data set [2], in [3], in data set [4] and in [5] was more than 10 µM in each case. For the same compound, in data set [6], a half-maximal effect (EC50) was put at 16.2 µM.

In the case of `Nc1ncnc2c1c(-c1cccc3c1oc1ccccc13)cn2[C@@H]1O[C@H](CO)[C@@H](F)[C@H]1O`, the IC50 in data set [1], in [2], in [3], in data set [4] and in [5] was more than 10 µM throughout. The EC50 in [6] was 15.4 µM.
